Patent publication US5430148A, “Antiproliferative quinazolines” (Agouron Pharmaceuticals, Inc., priority 1992, dated 1995)
Where two headings read alike, the source gives them in different places. One block for each molecule: values may come before it.

Key:
GC3/M TK- cells = test: Inhibition of growth of tumor cells, thymidine kinase-deficient human colon adenocarcinoma GC3/M TK- (MTT); format: cell-based; settings: for IC50: 5 days continuous exposure, MTT, read-out: Cell Culture IC50, GC3-M (TK-); for growth inhibition, GC3-M (TK-): 5 days
Procedure: (§1) In Vitro Testing to Determine Inhibition of Growth of Tumor Cells
(§2) Growth was measured over 3 days (L1210) or 5 days (CCRF-CEM, GC3 /M TK^-) of continuous exposure to varying concentrations of each test compound, added 4 h. after initial cell plating, by the MTT-tetrazolium reduction assay of T. J. Mosmann [J. Immunol. Meth. […] Water insoluble derivatives were dissolved in DMSO and diluted to a final concentration of 0.5% solvent in cell cultures.

[1] = target: human TS (thymidylate synthase) (Homo sapiens, UniProt P04818); test: Inhibition constants against 5,10-methylenetetrahydrofolate for thymidylate synthase, human enzyme (tritium release); format: biochemical; settings: cofactor as variable substrate, pH 7.6, 24° C.
Sequence of human TS (thymidylate synthase) (P04818 2-313 limits assumed): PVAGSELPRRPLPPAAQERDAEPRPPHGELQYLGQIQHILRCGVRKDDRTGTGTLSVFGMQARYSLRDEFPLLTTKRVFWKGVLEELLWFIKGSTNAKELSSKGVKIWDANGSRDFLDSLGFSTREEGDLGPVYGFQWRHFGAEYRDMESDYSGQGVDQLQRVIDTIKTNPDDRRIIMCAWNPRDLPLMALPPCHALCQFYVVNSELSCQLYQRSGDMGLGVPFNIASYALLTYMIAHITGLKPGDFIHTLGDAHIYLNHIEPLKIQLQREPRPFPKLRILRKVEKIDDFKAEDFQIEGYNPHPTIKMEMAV
Procedure: (§3) Determination of Inhibition Constants Against 5,10-Methylenetetrahydrofolate for the Enzyme Thymidylate Synthase
(§4) Inhibition constants, Ki, slope and Ki, intercept [W. W. Cleland, Biochim. Biophys. […] The cofactor was present as the variable substrate under conditions of saturating radiolabelled 2'-deoxyuridine 5-monophosphate (dUMP). […] Assays of human TS also contained 1-5 μg/mL bovine serum albumin to stabilize the protein. Reactions were initiated by the addition of enzyme and were carried out for 5 minutes at 24° C., and then quenched by the addition of charcoal (15 mg in 0.1 mL H2 O). The quenched samples were centrifuged at 10,000 rpm for 12-15 min at […] to remove unreacted dUMP which had bound to the charcoal, and 0.1 mL of the supernatant was counted by liquid scintillation in the presence of 5 mL ecolume to determine the release of tritium label from the 5-position of the dUMP. […] Experimental results were analyzed by EZ-FIT, a nonlinear regression analysis program (Perrella Scientific, Springfield, Pa.) which was used to fit all data points simultaneously to a mixed noncompetitive inhibition scheme.

[2] = tested on: L1210 murine leukemia cells; test: Inhibition of growth of tumor cells, L1210 murine leukemia (MTT); format: cell-based; settings: for IC50: 3 days continuous exposure, MTT, read-out: Cell Culture IC50, L1210
Procedure: as §1, §2

CCRF-CEM cells = test: Inhibition of growth of tumor cells, CCRF-CEM human lymphoblastic leukemia (MTT); format: cell-based; settings: for IC50: 5 days continuous exposure, MTT, read-out: Cell Culture IC50, CCRF-CEM
Procedure: as §1, §2

[3] = target: E. coli TS (thymidylate synthase) (Escherichia coli, UniProt P0A884); test: Inhibition constants against 5,10-methylenetetrahydrofolate for thymidylate synthase, E. coli enzyme (tritium release); format: biochemical
Sequence of E. coli TS (thymidylate synthase) (P0A884 whole entry): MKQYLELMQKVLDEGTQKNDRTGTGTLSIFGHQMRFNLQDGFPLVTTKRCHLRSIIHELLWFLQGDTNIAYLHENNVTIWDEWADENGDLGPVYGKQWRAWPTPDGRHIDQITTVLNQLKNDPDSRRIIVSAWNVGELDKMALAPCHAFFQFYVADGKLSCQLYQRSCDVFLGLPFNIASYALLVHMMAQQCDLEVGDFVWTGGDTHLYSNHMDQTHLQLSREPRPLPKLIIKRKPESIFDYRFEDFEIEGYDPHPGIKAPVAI
Procedure: as §3, §4

[4] = Ki Data, human thymidylate synthase
[5] = read-out: Ki Data, human thymidylate synthase

IC50 (GC3/M TK- cells; Homo sapiens, GC3/MTK-, 120 h): 4.1 µM
Ki [1, 4]: 0.00795 µM
IC50 ([2]; Mus musculus, L1210, 72 h): 1.05 µM
IC50 (CCRF-CEM cells; Homo sapiens, CCRF-CEM, 120 h): 0.99 µM
Structure (SMILES): Cc1nc2ccc(C)c(Sc3ccc(C(=O)N[C@@H](CCC(=O)O)C(=O)O)cc3)c2c(=O)[nH]1 [Compound 27A, N-[4-((3,4-Dihydro-2,6-dimethyl-4-oxo-5-quinazolinyl)thio)benzoyl]-L-glutamic acid]

Structure (SMILES): Cc1nc(O)c2c(Sc3ccccc3)cccc2n1 [Compound 2A]
Ki [3]: > 10 µM

Structure (SMILES): Cc1nc2cccc(Sc3ccccn3)c2c(=O)[nH]1 [Compound 20A]
growth inhibition, GC3-M (TK-) (GC3/M TK- cells; @ > 50 μM): none
IC50 (GC3/M TK- cells; Homo sapiens, GC3/MTK-, 120 h): > 50 µM
Ki [3]: 311 ± 99 µM
Ki [1, 4]: 61 ± 17 µM
IC50 ([2]; Mus musculus, L1210, 72 h): > 50 µM
inhibition at 50 µM ([2]; Mus musculus, L1210, 72 h, @ > 50 μM, 3 days, read-out: growth inhibition, L1210): 40%
IC50 (CCRF-CEM cells; Homo sapiens, CCRF-CEM, 120 h): > 50 µM
inhibition at 50 µM (CCRF-CEM cells; Homo sapiens, CCRF-CEM, 120 h, @ > 50 μM, 5 days, read-out: growth inhibition, CCRF-CEM): 20%

Structure (SMILES): COc1cc(Sc2c(C)ccc3nc(C)[nH]c(=O)c23)ccn1 [Compound 16A, 3,4-Dihydro-2,6-dimethyl-4-oxo-5-[4-(6-methoxypyridylthio)]quinazoline]
IC50 (GC3/M TK- cells; Homo sapiens, GC3/MTK-, 120 h): > 5 µM
Ki [3]: 0.76 ± 0.12 µM
Ki [1, 4]: 0.048 ± 0.006 µM

Structure (SMILES): Cc1nc2ccc(C)c(Sc3nnc(C)s3)c2c(=O)[nH]1 [Compound 11A]
growth inhibition, GC3-M (TK-) (GC3/M TK- cells; @ > 3.33 μM): none
IC50 (GC3/M TK- cells; Homo sapiens, GC3/MTK-, 120 h): > 3.33 µM
Ki [3]: 21 ± 13 µM
Ki [1, 5]: 2 ± 0.4 µM
growth inhibition, L1210 ([2]; @ > 3.33 μM, 3 days): none
IC50 ([2]; Mus musculus, L1210, 72 h): > 3.33 µM
IC50 (CCRF-CEM cells; Homo sapiens, CCRF-CEM, 120 h): > 3.33 µM
inhibition at 3.33 µM (CCRF-CEM cells; Homo sapiens, CCRF-CEM, 120 h, @ > 3.33 μM, 5 days): 17%

IC50 (GC3/M TK- cells; Homo sapiens, GC3/MTK-, 120 h): 18 µM
Ki [1, 4]: 0.079 µM
IC50 ([2]; Mus musculus, L1210, 72 h): 4.05 µM
IC50 (CCRF-CEM cells; Homo sapiens, CCRF-CEM, 120 h): 10.5 µM
Structure (SMILES): Cc1nc2ccc(C)c(Sc3ccnc(N(C)C)c3)c2c(=O)[nH]1 [Compound 26A, 3,4-Dihydro-2,6-dimethyl-4-oxo-5-[4-(6-dimethylaminopyridylthio)]-quinazoline]

Structure (SMILES): Cc1nc2ccc(C)c(Sc3ccncc3)c2c(=O)[nH]1 [Compound 8A, 3,4-Dihydro-2,6-dimethyl-4-oxo-5-(4-pyridylthio)-quinazoline]
IC50 (GC3/M TK- cells; Homo sapiens, GC3/MTK-, 120 h): 6 µM
Ki [3]: 0.89 ± 0.28 µM
Ki [1, 4]: 0.062 µM
IC50 ([2]; Mus musculus, L1210, 72 h): 3.5 µM
IC50 (CCRF-CEM cells; Homo sapiens, CCRF-CEM, 120 h): 5.2 µM

Structure (SMILES): Cc1ccc2nc(N)[nH]c(=O)c2c1Sc1ccnnc1 [Compound 30A]
IC50 (GC3/M TK- cells; Homo sapiens, GC3/MTK-, 120 h): 1.5 µM
Ki [1, 5]: 0.011 µM
IC50 ([2]; Mus musculus, L1210, 72 h): 1.6 µM
IC50 (CCRF-CEM cells; Homo sapiens, CCRF-CEM, 120 h): 0.88 µM

Structure (SMILES): Cc1nc2ccc(C)c(Sc3ccncc3)c2c(=O)[nH]1 [Compound 23A]
IC50 (GC3/M TK- cells): 6.1 µM
Ki [1, 4]: 0.13 ± 0.009 µM
IC50 [2]: 3.5 µM
IC50 (CCRF-CEM cells): 5.1 µM

Structure (SMILES): Cc1nc(O)c2c(Oc3ccccc3)cccc2n1 [Compound 1A]
Ki [3]: > 100 µM

Structure (SMILES): Cc1nc2ccc(C)c(Sc3ccc(S(=O)(=O)c4ccccc4)cc3)c2c(=O)[nH]1 [Compound 9A]
IC50 (GC3/M TK- cells; Homo sapiens, GC3/MTK-, 120 h): 4.5 µM
IC50 ([2]; Mus musculus, L1210, 72 h): 1.8 µM
IC50 (CCRF-CEM cells; Homo sapiens, CCRF-CEM, 120 h): 2.1 µM

Structure (SMILES): Cc1ccc2nc(N)[nH]c(=O)c2c1Sc1ccncc1 [Compound 14A, 2-Amino-3,4-dihydro-6-methyl-4-oxo-5-(4-pyridylthio)-quinazoline]
IC50 (GC3/M TK- cells; Homo sapiens, GC3/MTK-, 120 h): 1 µM
Ki [3]: 0.15 ± 0.03 µM
IC50 ([2]; Mus musculus, L1210, 72 h): 1 µM
IC50 (CCRF-CEM cells; Homo sapiens, CCRF-CEM, 120 h): 0.81 µM

Structure (SMILES): Cc1nc2cccc(C(O)(c3ccccc3)c3ccccc3)c2c(=O)[nH]1 [Compound 6A, 3,4-Dihydro-5-(α-diphenyl-hydroxymethyl)-2-methyl-4-oxo-quinazoline]
IC50 (GC3/M TK- cells; Homo sapiens, GC3/MTK-, 120 h): > 4.98 µM
Ki [3]: > 10 µM
Ki [1, 5]: > 10 µM
IC50 ([2]; Mus musculus, L1210, 72 h): 2.3 µM
IC50 (CCRF-CEM cells; Homo sapiens, CCRF-CEM, 120 h): 4 µM

IC50 (GC3/M TK- cells; Homo sapiens, GC3/MTK-, 120 h): 32 µM
IC50 ([2]; Mus musculus, L1210, 72 h): 21 µM
IC50 (CCRF-CEM cells; Homo sapiens, CCRF-CEM, 120 h): 26 µM
Structure (SMILES): COc1ccc2nc(C)[nH]c(=O)c2c1Sc1ccncc1 [Compound 13A, 3,4-Dihydro-6-methoxy-2-methyl-4-oxo-5-(4-pyridylthio)-quinazoline]
